# In article PMC10489980, “Design of Potent and Salt-Insensitive Antimicrobial Branched Peptides” (Polymers, 2023):
# Where two headings read alike, the source gives them in different places. Residues, ends and D or L forms follow the SMILES beside them.
# Tests used:
# Type in all cases: cell-based
# Candida kefyr ATCC 37095 = tested on: Candida kefyr ATCC 37095
# Source text: (§1) Ten organisms obtained from the American Type Culture Collection (ATCC; Rockville, MD) were used for antimicrobial assays. Four Gram-negative bacteria included Escherichia coli ATCC 25922, Pseudomonas aeruginosa ATCC 27853, Klebsiella oxytoca ATCC 49131, and Proteus vulgaris ATCC 49132. The three Gram-positive bacteria were Staphylococcus aureus 29213, Micrococcus luteus ATCC 49,732, and Enterococcus faecalis ATCC 29212. The three fungi were Candida albicans ATCC 37092, Candida kefyr ATCC 37095, and Candida tropicalis ATCC 37097. The clinical isolates were obtained from Singapore General Hospital (SGH). They are Enterococcus faecium, Staphylococcus aureus, Klebsiella pneumoniae, Acinetobacter baumannii, Pseudomonas aeruginosa, and Enterobacter species. The strains were incubated in trypticase soy broth (TSB), which was prepared in double distilled water and autoclaved for sterilization. TSB was purchased from Becton-Dickinson (Cockeysville, MD, USA).
# (§2) Antimicrobial Assays. A sensitive and reproducible two-stage radial diffusion antimicrobial assay of Lehrer et al. was employed. A 1–4 × 10^6 colony-forming unit/mL of the test organism was mixed with 10 mL of molten underlay gel solution and poured into Petri dishes to form a uniform layer. The gel solution consisted of 10 mM sodium phosphate buffer, 0.03% TSB, and 0.02% Tween-20, with the addition of 100 mM NaCl in the case of high-salt conditions. Upon gel solidification, gel wells were made by a 3-mm diameter template in an evenly spaced array. A 5 µL aliquot of a serial half-log dilution of test peptides at seven concentrations was added to each well after removal of gel plugs. The dishes were incubated at 37 °C for 3 h to allow peptide diffusion into the underlay gels. Gels were overlaid with 10 mL of 1% agarose in 6% TSB (wt/vol). After additional incubation at 37 °C for 16–24 h, the diameter of the clear zone surrounding the wells (colony-free) was measured under a microscope. Antimicrobial activities were expressed in units (0.1 mm = 1 unit), and the MICs (in µM) were determined from the x-intercepts of the dose-response curves. Experiments were performed in triplicates.
# [1] = tested on: Micrococcus luteus ATCC 49,732
# Source text: as §1, §2
# [2] = tested on: Klebsiella oxytoca ATCC 49131
# Source text: as §1, §2
# [3] = tested on: Candida albicans ATCC 37092
# Source text: as §1, §2
# [4] = tested on: Enterococcus faecalis ATCC 29212
# Source text: as §1, §2
# [5] = tested on: Escherichia coli ATCC 25922
# Source text: as §1, §2
# [6] = tested on: Candida tropicalis ATCC 37097
# Source text: as §1, §2
# [7] = tested on: Staphylococcus aureus 29213
# Source text: as §1, §2
# [8] = tested on: Pseudomonas aeruginosa ATCC 27853
# Source text: as §1, §2
# [9] = tested on: Proteus vulgaris ATCC 49132
# Source text: as §1, §2
SMILES,"MIC, C. kefyr, H-Salt (Candida kefyr ATCC 37095; ATCC 37095, 3 h) [µM]","MIC, C. kefyr, L-Salt (Candida kefyr ATCC 37095; ATCC 37095, 3 h) [µM]","MIC, M. luteus, H-Salt ([1]; ATCC 49, 3 h) [µM]","MIC, M. luteus, L-Salt ([1]; ATCC 49, 3 h) [µM]","MIC, K. oxytoca, H-Salt ([2]; ATCC 49131, 3 h) [µM]","MIC, K. oxytoca, L-Salt ([2]; ATCC 49131, 3 h) [µM]","MIC, C. albicans, H-Salt ([3]; ATCC 37092, 3 h) [µM]","MIC, C. albicans, L-Salt ([3]; ATCC 37092, 3 h) [µM]","MIC, E. faecalis, H-Salt ([4]; ATCC 29212, 3 h) [µM]","MIC, E. faecalis, L-Salt ([4]; ATCC 29212, 3 h) [µM]","MIC, E. coli, H-Salt ([5]; ATCC 25922, 3 h) [µM]","MIC, E. coli, L-Salt ([5]; ATCC 25922, 3 h) [µM]","MIC, C. tropicalis, H-Salt ([6]; ATCC 37097, 3 h) [µM]","MIC, C. tropicalis, L-Salt ([6]; ATCC 37097, 3 h) [µM]","MIC, S. aureus, H-Salt ([7]; 29213, 3 h) [µM]","MIC, S. aureus, L-Salt ([7]; 29213, 3 h) [µM]","MIC, P. aeruginosa, H-Salt ([8]; ATCC 27853, 3 h) [µM]","MIC, P. aeruginosa, L-Salt ([8]; ATCC 27853, 3 h) [µM]","MIC, P. vulgaris, H-Salt ([9]; ATCC 49132, 3 h) [µM]","MIC, P. vulgaris, L-Salt ([9]; ATCC 49132, 3 h) [µM]",also measured
CC(=O)N[C@@H](CCCCNC(=O)[C@H](CCCNC(=N)N)NC(=O)[C@H](Cc1ccc(O)cc1)NC(=O)[C@H](CC(C)C)NC(=O)[C@@H](N)CCCNC(=N)N)C(=O)N[C@@H](CCCCNC(=O)[C@H](CCCNC(=N)N)NC(=O)[C@H](Cc1ccc(O)cc1)NC(=O)[C@H](CC(C)C)NC(=O)[C@@H](N)CCCNC(=N)N)C(=O)N[C@@H](CCCCNC(=O)[C@H](CCCNC(=N)N)NC(=O)[C@H](Cc1ccc(O)cc1)NC(=O)[C@H](CC(C)C)NC(=O)[C@@H](N)CCCNC(=N)N)C(N)=O [K3R],0.7,0.8,0.8,0.7,0.8,0.7,0.7,1.0,1.3,1.0,0.8,0.7,0.6,1.1,0.6,0.6,0.7,0.9,1.0,0.6,–
CC(C)C[C@H](NC(=O)[C@@H](N)CCCNC(=N)N)C(=O)N[C@@H](Cc1ccc(O)cc1)C(=O)N[C@@H](CCCNC(=N)N)C(=O)NCCCC[C@H](NC(=O)[C@H](CCCCNC(=O)[C@H](CCCNC(=N)N)NC(=O)[C@H](Cc1ccc(O)cc1)NC(=O)[C@H](CC(C)C)NC(=O)[C@@H](N)CCCNC(=N)N)NC(=O)[C@H](CCCCNC(=O)[C@H](CCCNC(=N)N)NC(=O)[C@H](Cc1ccc(O)cc1)NC(=O)[C@H](CC(C)C)NC(=O)[C@@H](N)CCCNC(=N)N)NC(=O)[C@H](CCCCNC(=O)[C@H](CCCNC(=N)N)NC(=O)[C@H](Cc1ccc(O)cc1)NC(=O)[C@H](CC(C)C)NC(=O)[C@@H](N)CCCNC(=N)N)NC(=O)OCC1c2ccccc2-c2ccccc21)C(N)=O [K4R],–,–,–,–,–,–,–,–,–,–,–,–,–,–,–,–,–,–,–,–,"MIC, C. kefyr, H-Salt (Candida kefyr ATCC 37095; ATCC 37095, radial diffusion assay, high-salt (100 mM NaCl), triplicates): 0.9 µM; MIC, C. kefyr, L-Salt (Candida kefyr ATCC 37095; ATCC 37095, radial diffusion assay, low-salt (without NaCl), triplicates): 0.9 µM; MIC, M. luteus, H-Salt ([1]; ATCC 49,732, radial diffusion assay, high-salt (100 mM NaCl), triplicates): 1.0 µM; MIC, M. luteus, L-Salt ([1]; ATCC 49,732, radial diffusion assay, low-salt (without NaCl), triplicates): 0.6 µM; MIC, K. oxytoca, H-Salt ([2]; ATCC 49131, radial diffusion assay, high-salt (100 mM NaCl), triplicates): 1.2 µM; MIC, K. oxytoca, L-Salt ([2]; ATCC 49131, radial diffusion assay, low-salt (without NaCl), triplicates): 1.3 µM; MIC, C. albicans, H-Salt ([3]; ATCC 37092, radial diffusion assay, high-salt (100 mM NaCl), triplicates): 0.8 µM; MIC, C. albicans, L-Salt ([3]; ATCC 37092, radial diffusion assay, low-salt (without NaCl), triplicates): 0.7 µM; MIC, E. faecalis, H-Salt ([4]; ATCC 29212, radial diffusion assay, high-salt (100 mM NaCl), triplicates): 1.5 µM; MIC, E. faecalis, L-Salt ([4]; ATCC 29212, radial diffusion assay, low-salt (without NaCl), triplicates): 0.5 µM; MIC, E. coli, H-Salt ([5]; ATCC 25922, two-stage radial diffusion assay, high-salt (underlay gel 10 mM sodium phosphate, 0.03% TSB, 0.02% Tween-20, with 100 mM NaCl), 37 °C, x-intercept of dose-response curve, triplicates): 0.7 µM; MIC, E. coli, L-Salt ([5]; ATCC 25922, two-stage radial diffusion assay, low-salt (underlay gel 10 mM sodium phosphate, 0.03% TSB, 0.02% Tween-20, without NaCl), 37 °C, x-intercept of dose-response curve, triplicates): 0.7 µM; MIC, C. tropicalis, H-Salt ([6]; ATCC 37097, radial diffusion assay, high-salt (100 mM NaCl), triplicates): 1.2 µM; MIC, C. tropicalis, L-Salt ([6]; ATCC 37097, radial diffusion assay, low-salt (without NaCl), triplicates): 1.5 µM; MIC, S. aureus, H-Salt ([7]; strain 29213, radial diffusion assay, high-salt (100 mM NaCl), triplicates): 0.9 µM; MIC, S. aureus, L-Salt ([7]; strain 29213, radial diffusion assay, low-salt (without NaCl), triplicates): 0.8 µM; MIC, P. aeruginosa, H-Salt ([8]; ATCC 27853, radial diffusion assay, high-salt (100 mM NaCl), triplicates): 0.9 µM; MIC, P. aeruginosa, L-Salt ([8]; ATCC 27853, radial diffusion assay, low-salt (without NaCl), triplicates): 0.8 µM; MIC, P. vulgaris, H-Salt ([9]; ATCC 49132, radial diffusion assay, high-salt (100 mM NaCl), triplicates): 1.0 µM; MIC, P. vulgaris, L-Salt ([9]; ATCC 49132, radial diffusion assay, low-salt (without NaCl), triplicates): 1.1 µM"
"CC(C)C[C@H](NC(=O)[C@@H](N)CCCNC(=N)N)C(=O)N[C@@H](Cc1ccc(O)cc1)C(=O)N[C@@H](CCCNC(=N)N)C(=O)NCCCC[C@H](NC(=O)[C@H](CCCCNC(=O)[C@H](CCCNC(=N)N)NC(=O)[C@H](Cc1ccc(O)cc1)NC(=O)[C@H](CC(C)C)NC(=O)[C@@H](N)CCCNC(=N)N)NC(=O)[C@H](CCCCNC(=O)[C@H](CCCNC(=N)N)NC(=O)[C@H](Cc1ccc(O)cc1)NC(=O)[C@H](CC(C)C)NC(=O)[C@@H](N)CCCNC(=N)N)NC(=O)[C@H](CCCCNC(=O)[C@H](CCCNC(=N)N)NC(=O)[C@H](Cc1ccc(O)cc1)NC(=O)[C@H](CC(C)C)NC(=O)[C@@H](N)CCCNC(=N)N)NC(=O)[C@H](CCCNC(=N)N)NC(=O)[C@H](Cc1ccc(O)cc1)NC(=O)[C@H](CC(C)C)NC(=O)[C@@H](N)CCCNC(=N)N)C(N)=O [K5R] (HELM PEPTIDE1{R.L.Y.R.K.K.K.K.[am]}|PEPTIDE2{R.L.Y.R}|PEPTIDE3{R.L.Y.R}|PEPTIDE4{R.L.Y.R}|PEPTIDE5{R.L.Y.R}$PEPTIDE1,PEPTIDE2,8:R3-4:R2|PEPTIDE1,PEPTIDE3,7:R3-4:R2|PEPTIDE1,PEPTIDE4,6:R3-4:R2|PEPTIDE1,PEPTIDE5,5:R3-4:R2$$$V2.0; N-terminus assumed)",0.9,0.9,0.8,0.6,1.3,0.9,0.8,0.7,1.4,1.3,0.6,0.7,1.3,1.1,0.7,0.8,0.8,0.8,0.7,1.2,–
